{
  "source": "patent US8476255B2",
  "about": "“Histone deacetylase inhibitors” (Orchid Chemicals & Pharmaceuticals Limited, priority 2007, dated 2013)",
  "key": {"HCT 116 (colon) cells": {"system": "HCT 116 (colon) cells", "assay": "Anti-cancer screen (MTT), HCT 116", "type": "cell-based", "settings": "Homo sapiens, HCT-116, HCT116, 48 hours, MTT", "in_short": "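Growth inhibition is measured by MTT reduction: after 48 h drug exposure at 0.01 to 100 μM, cells receive MTT for 3 h and dissolved formazan is read at 570 nm, with a time-zero plate read when compounds are added.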"}, "[1]": {"system": "HDAC (Mouse Liver Extract)", "assay": "HDAC inhibition assay using Boc-Lys(Ac)-AMC substrate", "type": "biochemical", "settings": "mouse liver enzyme", "in_short": "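Released AMC measured at 360 nm excitation, 460 nm emission after 15-30 min trypsin development at 37° C. Preceding deacetylation: mouse liver extract with acetylated-lysine AMC substrate, 30 min at 37° C after 5-min preincubation; blanks were buffer alone and substrate alone.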"}, "recombinant HDAC1 enzyme": {"biological_target": "recombinant HDAC1 enzyme (Homo sapiens (Human), UniProt Q13547)", "sequence (Q13547 whole entry, canonical isoform)": "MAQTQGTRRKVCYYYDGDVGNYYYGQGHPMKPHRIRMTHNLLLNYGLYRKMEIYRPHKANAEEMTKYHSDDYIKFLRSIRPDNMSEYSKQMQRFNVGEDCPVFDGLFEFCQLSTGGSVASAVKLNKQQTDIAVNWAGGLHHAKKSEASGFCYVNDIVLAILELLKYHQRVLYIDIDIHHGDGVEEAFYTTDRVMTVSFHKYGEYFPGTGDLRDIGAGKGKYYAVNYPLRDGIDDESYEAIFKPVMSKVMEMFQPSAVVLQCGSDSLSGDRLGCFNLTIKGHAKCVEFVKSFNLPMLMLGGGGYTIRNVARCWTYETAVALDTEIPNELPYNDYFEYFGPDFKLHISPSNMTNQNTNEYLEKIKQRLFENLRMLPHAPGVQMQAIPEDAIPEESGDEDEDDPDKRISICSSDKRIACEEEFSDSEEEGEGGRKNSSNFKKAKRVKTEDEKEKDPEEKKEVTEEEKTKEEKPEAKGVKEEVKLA", "assay": "HDAC1 inhibitory activity (isoform selectivity)", "type": "biochemical", "settings": "read-out: HDAC1 inhibition (IC50)", "experimental": "The assay was carried out, as previously described using recombinant HDAC1 enzyme (BIOMOL, USA) and following manufacturer's instructions."}, "Acetylated histone (H3)": {"system": "Acetylated histone (H3)", "assay": "Histone (H3) acetylation, sandwich ELISA in HCT116 lysate", "type": "cell-based", "settings": "HCT116, 4 hours", "experimental": "(§1) Acetylated histone (H3), acetylated Tubulin and p21 levels were detected in cell lysate by sandwich ELISA method (Cell Signaling Technology, USA, Cat No: 7232, 7204 & 7167 respectively) by following manufacturer's instructions. Briefly, colon cancer cells (HCT116. 10,000/well) were incubated with test compound (1 and 10 μM) or medium (control) for 4 hours at 37° C. in CO2 incubator. The incubation lasted 18 hours for p21 induction. After incubation, cell lysates were prepared in cell lysis buffer by sonication on ice. The lysates were collected after centrifugation and subjected to ELISA test procedure. 100 μL of each diluted cell lysate in dilution buffer (1:1) was added to appropriate capture antibody coated microwells and incubated overnight at 4° C. After washing, 100 μL of detection antibody was added for 1 hour at 37° C. After second washing, 100 μL of HRP-linked secondary antibody was added for 30 min at 37° C. Finally, after appropriate washing, 100 μL of TMB substrate was added for 10 min at 37° C. followed by 100 μL of stop solution. The absorbance of individual wells was read using a spectrophotometer at 450 nm (A450)."}, "acetylated Tubulin": {"system": "acetylated Tubulin", "assay": "Tubulin acetylation, sandwich ELISA in HCT116 lysate", "type": "cell-based", "settings": "HCT116, 4 hours", "experimental": "as §1"}, "HCT116 (colon) xenograft": {"system": "HCT116 (colon) xenograft", "type": "in vivo", "settings": "oral gavage once every day for 21 days, vs vehicle treated control", "experimental": "Experiments were carried out using 6-8 week old female athymic SCID (Severe Combined Immune Deficient) mice. The mice were housed in Individually Ventilated Cages (IVC) at constant temperature (22±3° C.) and humidity (50±20%). They had free access to food and water. Tumors were obtained from ATCC, USA and maintained in vivo by subcutaneous (s.c.) passage of tumor fragments (appx 30 mg) in healthy mice according to standard reported procedures. All the animal protocols were approved by the Institutional Animal Ethics Committee, ORLL, Chennai. Each experimental group included 6-8 mice bearing s.c. tumors. Tumors were implanted into the axillary region by puncturing using a Trocar, and tumor growth was monitored by measurement of tumor diameters with a Vernier caliper. Tumor Volume (TV) was calculated according to the following formula: TV(mm^3)=L×W^2×0.5, […]\nTest compound was administered by oral gavage in a volume of 5-10 ml/kg. […] Tumor size was measured twice every week and body weight was recorded daily prior to dosing.\nTest compound (T) efficacy was assessed by calculating several parameters based on tumor volume (TV) with respect to untreated control (C). Parameters routinely assessed were T/C % [TVtest/TVcontrol×100] and Tumor Volume Inhibition (TVI=1−T/C %). […]\nToxic effects of drug treatment were assessed by Body Weight Loss %. […]"}},
  "data": [
    {"smiles": "COc1ccc(/C=C(/C(=O)NCc2ccc(C(=O)Nc3ccccc3N)cc2)c2ccc(F)cc2)cc1OC", "note": "[Compound 19, N-(2-Aminophenyl)-4-((3-(3,4-dimethoxyphenyl)-2-(4-fluorophenyl)acrylamido)methyl)benzamide]", "values": [
      {"measurement": "GI50", "setting": "HCT 116 (colon) cells; read-out: Cell growth inhibition HCT116 (Colon) GI50", "value": 0.3, "unit": "µM"},
      {"measurement": "CC50", "setting": "HCT 116 (colon) cells; read-out: Cell growth inhibition HCT116 (Colon) LC50", "value": 58, "unit": "µM"},
      {"measurement": "IC (TGI)", "setting": "HCT 116 (colon) cells; read-out: Cell growth inhibition HCT116 (Colon) TGI", "value": 5, "unit": "µM"},
      {"measurement": "HDAC inhibition % (1 μM)", "setting": "[1]; 1 μM", "value": 29.7, "unit": "%"},
      {"measurement": "HDAC inhibition % (10 μM)", "setting": "[1]; 10 μM", "value": 52.9, "unit": "%"},
      {"measurement": "IC50", "setting": "[1]", "value": 8.6, "unit": "µM"},
      {"measurement": "IC50", "setting": "recombinant HDAC1 enzyme", "value": 0.042, "unit": "µM"},
      {"measurement": "H3 acetylation (Fold increase)", "setting": "Acetylated histone (H3); 1 μM", "value": 4, "unit": "Fold increase"},
      {"measurement": "H3 acetylation (Fold increase)", "setting": "Acetylated histone (H3); 10 μM", "value": 16, "unit": "Fold increase"},
      {"measurement": "Tubulin acetylation (Fold increase)", "setting": "acetylated Tubulin; 1 μM", "value": 1.9, "unit": "Fold increase"},
      {"measurement": "Tubulin acetylation (Fold increase)", "setting": "acetylated Tubulin; 10 μM", "value": 4.4, "unit": "Fold increase"},
      {"measurement": "maximum Tumor Volume Inhibition (TVI)", "setting": "HCT116 (colon) xenograft", "value": 42, "unit": "%"}
    ]}
  ]
}
